One assay has as its target T1, human recombinant COX-2 (Homo sapiens, UniProt P35354).
T1 construct: purchased Oxford Biomedical Research Inc
T1 sequence (P35354 18-604): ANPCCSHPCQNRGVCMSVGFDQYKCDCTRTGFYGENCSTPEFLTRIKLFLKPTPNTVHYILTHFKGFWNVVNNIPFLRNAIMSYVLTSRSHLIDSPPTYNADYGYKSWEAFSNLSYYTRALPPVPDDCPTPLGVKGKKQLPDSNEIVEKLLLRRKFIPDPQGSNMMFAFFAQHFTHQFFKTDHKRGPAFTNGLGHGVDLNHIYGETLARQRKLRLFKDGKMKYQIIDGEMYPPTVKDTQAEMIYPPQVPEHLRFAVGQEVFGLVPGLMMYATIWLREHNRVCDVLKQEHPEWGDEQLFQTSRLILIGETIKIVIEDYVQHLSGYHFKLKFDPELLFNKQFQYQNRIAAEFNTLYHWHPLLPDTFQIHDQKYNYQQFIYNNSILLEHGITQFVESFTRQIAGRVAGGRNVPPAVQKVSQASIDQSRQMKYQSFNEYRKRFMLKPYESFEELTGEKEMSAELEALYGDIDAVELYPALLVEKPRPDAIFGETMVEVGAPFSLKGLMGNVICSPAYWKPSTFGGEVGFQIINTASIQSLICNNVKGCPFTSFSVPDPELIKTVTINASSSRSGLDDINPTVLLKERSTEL
As to the kind of experiment: Cyclooxygenase enzyme assay (TLC method), COX-2. In kind it is biochemical. As to conditions: human recombinant COX-2, preincubation 90-120 min, [1-14C]arachidonic acid 50 μM. How it is done:
The compounds of formula I are potent inhibitors of COX-2. […] The resulting radiolabeled prostanoid compounds, i.e., the products of COX-2 reaction with arachidonic acid, were quantified.
(§1) Cyclooxygenase activity of ovine COX-1 (Oxford Biomedical Research Inc.) and human recombinant COX-2 Oxford Biomedical Research Inc.) was assayed by a thin layer chromatography (TLC) method as follows. All inhibitors were dissolved in dimethyl sulfoxide to a stock solution of 5 mM. Human recombinant COX-2 (3 units) or ovine COX-1 (15 units) was incubated with inhibitors at several concentrations in a solution containing 100 mM Tris-HCl, pH7.8, 500 uM phenol and hematin for 90 to 120 minutes at room temperature (24° C.). In controls, equal volumes of DMSO without drug were added to the incubation mixture. After incubation for 90-120 minutes, [1-^14C]arachidonic acid (50 μM, 51 mCi/mmol) (DuPont NEN) was added and incubated at 37° C. for 2 minutes. The reaction was terminated by extraction with 1 ml of ethyl acetate. The ethyl acetate layer was transferred into a fresh tube and evaporated to dryness in a Speedvac vacuum dryer. The contents of the tubes were reconstituted in […] of ethyl acetate and spotted on a TLC plate (J. T. Baker, Phillipsburg, N.J.) and developed in a mobile phase containing chloroform/methanol (95:5) at4° C. Radiolabeled prostanoid compounds (the products of COX enzymatic reaction with radiolabeled arachidonic acid substrate) were quantitated with a radioactivity scanner (Fuji, Phosphorimager). The percentage of total products observed at different inhibitor concentrations was divided by the percentage of the products observed for protein samples pre incubated for the same time with DMSO.

Another assay has as its target T2, ovine COX-1 (Ovis aries, UniProt P05979).
T2 construct: purchased Oxford Biomedical Research Inc
T2 sequence (P05979 25-600): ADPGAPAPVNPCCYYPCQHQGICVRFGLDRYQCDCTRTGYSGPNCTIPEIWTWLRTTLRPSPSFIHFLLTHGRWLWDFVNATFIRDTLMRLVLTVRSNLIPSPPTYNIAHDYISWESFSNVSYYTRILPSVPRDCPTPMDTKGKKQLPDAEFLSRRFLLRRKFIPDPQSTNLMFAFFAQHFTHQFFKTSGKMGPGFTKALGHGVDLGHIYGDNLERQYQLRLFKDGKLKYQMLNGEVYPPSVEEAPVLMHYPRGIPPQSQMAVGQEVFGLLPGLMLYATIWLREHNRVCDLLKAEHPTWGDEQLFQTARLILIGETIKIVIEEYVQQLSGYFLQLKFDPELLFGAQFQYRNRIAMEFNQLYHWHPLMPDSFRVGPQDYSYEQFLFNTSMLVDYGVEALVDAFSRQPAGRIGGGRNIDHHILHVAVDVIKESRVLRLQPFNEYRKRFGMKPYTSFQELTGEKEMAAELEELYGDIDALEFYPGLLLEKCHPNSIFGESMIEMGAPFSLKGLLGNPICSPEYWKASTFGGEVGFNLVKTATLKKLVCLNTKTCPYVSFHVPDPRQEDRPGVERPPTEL
Description: Cyclooxygenase enzyme assay (TLC method), COX-1. In kind it is biochemical. As to conditions: ovine COX-1, preincubation 90-120 min, [1-14C]arachidonic acid 50 μM. The procedure: as §1

The test system of assay [1] is HT29 cells. Description: Soft agar assay, HT29 cells. It counts as cell-based, human. As to conditions: HT29 in soft agar. The procedure: (§2) Z-styryl 2-acetoxyphenylsulfide (Example 1) was compared to the COX-2 inhibitor celecoxib in inhibiting the growth of HT29 cells in soft agar. HT29 cells are human colorectal carcinoma cells that overexpress COX-2. HT29 cells grow in soft agar and form tumors in nude mice. The soft agar assay was performed as follows. A layer of bottom agar ([…]) was placed onto 60 mm^2 tissue culture dishes. The tumor cells were trypsinized from normal growth flasks while in exponential growth. The cells were counted by using a hemacytometer and 1.0×10^5 cells were placed into the top agar mixture containing growth medium, […] and various concentrations of drugs. The concentration range was normally between 10 μM to 75 μM. The cells were not refed during the assay system; therefore, the cells were treated with one dose of the agents. The plates were stained 20 days later with a 0.05% (w/v) nitroblue tetrazolium solution (which stains only viable cells) for 48 hours. […] The same concentration of Z-styryl 2-acetoxyphenylsulfide had little affect on the growth of monolayer cells.

Assay [2] relates to HT29 cells. As to the kind of experiment: Growth of monolayer cells. It counts as cell-based, human. As to conditions: same concentration (10 μM). The procedure:
as §2

The next assay concerns DLD-1 cells. As to the kind of experiment: Soft agar assay, DLD-1 cells. In kind it is cell-based, human. As to conditions: DLD-1 in soft agar, highest concentration tested, versus untreated control cells (FIG. 1). How it is done: as §2
The same assay was carried out with DLD-1 cells. Like HT29, DLD-1 cells are human colorectal carcinoma cells that overexpress COX-2. They grow in soft agar and form tumors in nude mice. The results are shown in FIG. 1, the y-axis being the percent of cell colonies remaining in comparison to untreated control cells.

As to `CC(=O)Oc1ccccc1S/C=C\c1ccc(F)cc1` [Example 2, Z-4-Fluorostyryl 2-acetoxyphenylsulfide], the IC50 at human recombinant COX-2 was 350 nM; against ovine COX-1 it was 4500 nM.

As to `CC(=O)Oc1ccccc1S/C=C\c1ccc(Cl)cc1` [Example 4, Z-4-Chlorostyryl 2-acetoxyphenylsulfide], the IC50 at human recombinant COX-2 worked out at 200 nM; on ovine COX-1, 4000 nM.

With `CC(=O)Oc1ccccc1S/C=C\c1ccccc1Cl` [Example 3, Z-2-Chlorostyryl 2-acetoxyphenylsulfide], the IC50 on human recombinant COX-2 stood at 250 nM; against ovine COX-1, 4000 nM.

With `CC(=O)Oc1cccc(/C=C\Sc2ccccc2OC(C)=O)c1` [Example 10, Z-3-Acetoxystyryl 2-acetoxyphenylsulfide], the IC50 on human recombinant COX-2 turned out to be 700 nM; against ovine COX-1 it was 2000 nM.

Regarding `CC(=O)Oc1ccccc1S/C=C\c1ccccc1` [Example 1, Z-styryl 2-acetoxyphenylsulfide], the “inhibition of anchorage independent growth” value in the assay with HT29 cells [1] (lowest concentration tested (10 μM), one dose, stained 20 days later) is on record as “completely inhibited”. Further, the “concentrations at which plates were devoid of all staining cells” value with HT29 cells [1] (nitroblue tetrazolium stain (viable cells)) is reported as “above 20 μM”. Further, the “effect on the growth of monolayer cells” value with HT29 cells [2] is reported as “little affect”. Moreover, the “inhibition of cell colony growth” value in the assay on DLD-1 cells is on record as 100%. Besides, the IC50 on human recombinant COX-2 was 150 nM; against ovine COX-1, 5000 nM.

(Values after patent US6656968B1, “(Z)-styryl acetoxyphenyl sulfides as cyclooxygenase inhibitors” (Temple University - Of the Commonwealth System of Higher …, priority 1999, dated 2003).)
